Tests used:
[1] = system: human skin primary fibroblast cells; assay: Intracellular transduction of fusion protein into skin cells, Western blot analysis; assay type: cell-based
Description: The human skin primary fibroblast cells obtained from Catholic University medical school (Korea) were cultured in Dulbecco's modified Eagle's medium (DMEM) containing 20 mM HEPES/NaOH (pH 7.4), 5 mM NaHCO3, 10% fetal bovine serum (FBS) and antibiotics ([…], 100 U/ml penicillin) at 37° C. under a humidified condition of 95% air and 5% CO2. For the transduction of Pep-1-FK506 binding proteins, skin cells were grown about […] to confluence on a 6-well plate. The culture medium was then replaced with fresh solution containing 10% fetal bovine serum. After skin cells were treated with one of 3 kinds of fusion protein of the FK506 binding protein (Pep-1 peptide is bound C-, N- or C-/N-terminus of FK506 binding protein respectively) for 1 hr, the cells were then treated with trypsin-EDTA and washed with phosphate-buffered saline (PBS). Thereafter the cells were harvested for the preparation of cell extracts to perform Western blot analysis.
Western blot analysis was performed to identify intracellular transduction of the fusion protein of FK506 binding protein. The protein was purified in nature form. […]
The transduced Pep-1-FK506BP proteins on the polyacrylamide gel were electrophoretically transferred to a nitrocellulose membrane. […]

cyclooxygenase-2 = assay: Immunity inhibition effect: lipopolysaccharide-induced cyclooxygenase-2 expression in skin cells, Western blot; assay type: cell-based, human
Description: Thereafter, one of 3 kinds of the fusion protein of FK506BP was added to the each group of cells, respectively. After lipopolysaccharides were added, the expression of cyclooxygenase-2 was monitored via the Western Blot analysis.

epidermis of mouse = assay: Penetration of fusion protein into epidermis of mouse; details: in vivo

In the case of “Pep-1-FK506BP: Fusion protein of human FK506 binding protein with Pep-1 peptide (SEQ ID NO: 3) and six histidines at the amino terminus; Seq. No. 7”, the “transduction into skin cells (western blot)” value ([1]; native fusion protein, 0.5-5 μM for 60 min and 5 μM for 10-60 min (FIG. 3)) is reported as “transduced into skin cells in a time- and concentration-dependent manner”, the “time in which the protein was transduced” value ([1]; skin cells treated with 5 μM for 10-60 min (FIG. 3B)) is reported as no more than 10 min and the “apoptosis induced by lipopolysaccharides” value (cyclooxygenase-2) is reported as “inhibited apoptosis”. For the same substance, the “effect on lipopolysaccharide-induced cyclooxygenase-2 expression, treatment together with FK506” value (cyclooxygenase-2; fusion protein together with FK506, compared with fusion protein alone) was “more effective”, the “expression of cyclooxygenase-2 induced by lipopolysaccharides” value (cyclooxygenase-2; western blot (FIG. 5), 10 μM fusion protein) was “inhibited” and the “penetration into epidermis of mouse” value (epidermis of mouse) was “effectively penetrated”.

Reference: US7902346B2, “Fusion protein comprising FK506 binding protein and DNA encoding the same” (Industry Academic Cooperation Foundation, Hallym University, priority 2006, dated 2011)
